Measured values reported in patent publication EP0335331A1, “O- (1,2-Di-O-acetyl-glycero-3-phosphoryl)ethanolamine, a process for its preparation and its therapeutic use” (MAGIS FARMACEUTICI S.p.A., priority 1988, dated 1989).

Assays:
[1] = acute toxicity by the Weil method; conditions: in vivo, mouse, read-out: LD₅₀
Source text: The acute toxicity of the compound of formula (I) was studied on the mouse by the Weil method [Weil C.S. Biometr. 8, 249 (1952)].

rat = assay: olive oil-induced alteration of lipoprotein state, plasma cholesterol and triglycerides; type: in vivo; conditions: normally fed rat treated orally with 15 ml/kg of olive oil; greatest effect two hours after the olive oil treatment
Procedure: The effect of the compound in terms of modifying the lipoprotein state and the plasma cholesterol and triglyceride levels, altered by oral administration of olive oil, was studied in normally fed rat treated orally with 15 ml/kg of olive oil at various concentrations.

CC(=O)OCC(COP(=O)(O)OCCN)OC(C)=O (centres unmarked) [compound of formula (I), O-(1,2-di-O-acetylglycero-3-phosphoryl)ethanolamine]
LD50 [1]: > 2000 mg/kg | effect on increase in triglycerides and cholesterol, reduction in the α-lipoproteins and increase in the β and pre-β fractions (rat): well antagonised by the compound, which proved able to return the parameters to normality
